Read-outs that look alike come from different tables or passages of the source.
Tests used:
[1] = test system: wt-REC-1 mantle cell lymphoma cells; assay: Cell proliferation assay wt-REC-1 (ATPlite, 72 hours); type: cell-based
How it was run: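 Luminescent viability read over 72 h, start-of-incubation signal recorded separately to separate growth from cell death. Percentage growth referenced to compound-free 0.3% DMSO wells; IC50 from 4-parameter logistic fit.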

[2] = target: full-length BTK C481S enzyme (Homo sapiens (Human), UniProt Q06187, C481S); assay: Biochemical kinase assay BTK C481S (IMAP)
How it was run: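 IC50 values come from IMAP fluorescence polarization after quenching with progressive binding solution. The reaction ran 2 h at room temperature in the dark with 1.2 nM full-length C481S enzyme, 7 μM ATP and 50 nM fluorescein-labelled MBP-derived peptide, following a 1 h dark pre-incubation of compound with enzyme.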

[3] = target: full-length wt-BTK enzyme (Homo sapiens (Human), UniProt Q06187); assay: Biochemical kinase assay wt-BTK (IMAP)
How it was run: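 Compound and enzyme (final 1.2 nM) were pre-incubated for 1 h at RT, after which the reaction was started with 4 μM ATP plus 50 nM fluorescein-MBP substrate peptide. After 2 h in the dark, the IMAP progressive binding reagent stopped the reaction, and phosphorylation was read by fluorescence polarization.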

[4] = test system: wt-TMD8 diffuse large B-cell lymphoma cells; assay: Cell proliferation assay wt-TMD8 (ATPlite, 120 hours); type: cell-based; settings: read-out: IC50 wt-TMD8
Description: Cell proliferation assay wt-TMD8 diffuse large B-cell lymphoma cells were purchased from Tokyo Medical and Dental University and cultured in RPMI-1640 cell culture medium (cat. no. 61870036, Life Technologies), supplemented with 10% (v/v) heat-inactivated fetal bovine calf serum and 1% penicillin/[…]. 1600 cells per well (in 45 μl) were seeded in a white 384-well culture plate (cat. no. 781080, Greiner Bio-One) and allowed to rest for at least 5 hours at 37° C., 95% humidity, and 5% CO2. 5 μl compound solution was added to the cells and incubation was continued for 120 hours (5 days), followed by addition of 24 μl ATPlite 1Step™ (PerkinElmer, Groningen, The Netherlands) solution was added to each well. Luminescence was recorded on an Envision multimode reader. The cell signal at the start of incubation was recorded separately in order to distinguish between cell population growth and cell death. In addition, maximum growth was determined by incubation of a duplicate without compound in the presence of 0.3% DMSO. Percentage growth was used as the main y-axis signal.

[5] = test system: REC-1 T474I cell lines; assay: Cell proliferation assay REC-1 BTK T474I knock-in cells (ATPlite, 72 hours); type: cell-based; settings: read-out: IC50 REC-1 T474I
How it was run: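 REC-1 cells carrying CRISPR knock-in mutant BTK, single-cell cloned and sequence-confirmed, were exposed to compound for 72 h and read by ATPlite luminescence. Percentage growth was calculated against the signal at the start of incubation and against untreated 0.3% DMSO wells as maximum growth.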

[6] = B-cell, wt-TMD8 cells, 120 hours, ATPlite

Sequence of full-length wt-BTK enzyme (Q06187 whole entry): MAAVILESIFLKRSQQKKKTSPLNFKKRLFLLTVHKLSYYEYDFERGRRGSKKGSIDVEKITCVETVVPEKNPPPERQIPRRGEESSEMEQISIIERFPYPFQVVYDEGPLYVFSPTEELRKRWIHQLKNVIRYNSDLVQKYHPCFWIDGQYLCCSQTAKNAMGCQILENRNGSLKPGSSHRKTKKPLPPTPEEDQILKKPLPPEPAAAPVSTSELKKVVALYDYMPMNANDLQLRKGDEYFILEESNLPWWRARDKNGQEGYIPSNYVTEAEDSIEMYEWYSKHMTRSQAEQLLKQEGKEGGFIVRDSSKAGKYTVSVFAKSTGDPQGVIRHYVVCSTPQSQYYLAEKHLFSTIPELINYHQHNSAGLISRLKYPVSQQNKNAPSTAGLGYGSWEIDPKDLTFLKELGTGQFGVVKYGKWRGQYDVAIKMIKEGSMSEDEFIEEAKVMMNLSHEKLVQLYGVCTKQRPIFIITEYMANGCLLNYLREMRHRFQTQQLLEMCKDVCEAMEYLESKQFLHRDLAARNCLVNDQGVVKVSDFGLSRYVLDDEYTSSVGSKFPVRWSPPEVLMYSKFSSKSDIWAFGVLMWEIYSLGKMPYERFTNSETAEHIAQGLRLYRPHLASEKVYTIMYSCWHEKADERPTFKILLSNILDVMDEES
Sequence of full-length BTK C481S enzyme (Q06187 whole entry C481S): as the sequence (Q06187 whole entry) above, with C481S counted along it

Row | Compound | IC50 ([1]; 72 h; read-out: IC50 wt-REC-1) [nM] | IC50 [2] [nM] | IC50 [3] [nM] | IC50 [4, 6] [nM] | IC50 ([5]; Homo sapiens, Rec1, 72 hours) [nM] | IC50 ([1]; 72 hours; read-out: IC50 wt-REC-1) [nM] | IC50 ([4]; wt-TMD8 cells, 120 hours, ATPlite) [nM] | IC50 ([5]; 72 hours) [nM] | IC50 ([1]; 72 h, read-out: IC50 wt-REC-1) [nM] | IC50 ([4]; B-cell, 120 h) [nM] | IC50 ([5]; Homo sapiens, Rec1, 72 h) [nM]
1 | CC(=O)N1CCC/C=C/c2cnc(N)c3c(-c4ccc(C(=O)Nc5cc(C(F)(F)F)ccn5)cc4)nn(c23)[C@@H]2CCC[C@H](C2)NC(=O)C1 [Example 167] | < 100 | < 5 | < 5 | < 100 | 100 to 500 |  |  |  |  |  | 
2 | CN1CC/C=C/c2cnc(N)c3c(-c4ccc(C(=O)Nc5cc(C(F)(F)F)ccn5)cc4)nn(c23)[C@@H]2CCC[C@H](C2)NC(=O)C1 [Example 30] | < 100 | < 5 | < 5 | < 100 | 100 to 500 |  |  |  |  |  | 
3 | Nc1ncc2c3c1c(-c1ccc(C(=O)Nc4cc(C(F)(F)F)ccn4)cc1)nn3[C@@H]1CCC[C@H](C1)NC(=O)COC/C=C\C2 [Example 97b] | 100 to 1000 | < 5 | 5 to 50 | < 100 | 500 to 10000 |  |  |  |  |  | 
4 | CC1CCn2nc(-c3ccc(C(=O)Nc4cc(C(F)(F)F)ccn4)cc3)c3c(N)ncc(c32)/C=C/C(O)CCCCC(=O)N1 (stereo not shown) [Example 75] | 100 to 1000 | < 5 | < 5 | < 100 | 500 to 10000 |  |  |  |  |  | 
5 | C[C@@H]1CCn2nc(-c3ccc(C(=O)Nc4cc(C(F)(F)F)ccn4)cc3)c3c(N)ncc(c32)/C=C/CCCCCC(=O)N1 [Example 60] | < 100 | < 5 | < 5 | < 100 | 500 to 10000 |  |  |  |  |  | 
6 | Nc1ncc2c3c1c(-c1ccc(C(=O)Nc4cc(F)ccn4)cc1)nn3[C@@H]1CCC[C@H](C1)NC(=O)CCCCC/C=C/2 [Example 196] | < 100 | < 5 | < 5 | < 100 | < 100 |  |  |  |  |  | 
7 | Nc1ncc2n3c(nc(-c4ccc(C(=O)Nc5cc(C(F)(F)F)ccn5)cc4)c13)[C@@H]1CCC[C@H](C1)NC(=O)CCOCC/C=C/2 [Example 177] | < 100 | < 5 | < 5 | < 100 | 100 to 500 |  |  |  |  |  | 
8 | C[C@@H]1CCn2nc(-c3ccc(C(=O)Nc4cc(C(F)(F)F)ccn4)cc3)c3c(N)ncc(c32)/C=C/CCCOCC(=O)N1 [Example 70] | < 100 | < 5 | < 5 | < 100 | 500 to 10000 |  |  |  |  |  | 
9 | COc1ccc(F)cc1C(=O)NCc1ccc(-c2nc3n4c(cnc(N)c24)/C=C/CCN[C@H](C)CC(=O)N[C@@H]2CC[C@@H]3C2)cc1 [Example 214] | 100 to 1000 | < 5 | < 5 | < 100 | 500 to 10000 |  |  |  |  |  | 
10 | CN1CCC/C=C/c2cnc(N)c3c(-c4ccc(C(=O)Nc5cc(C(F)(F)F)ccn5)cc4)nn(c23)[C@@H]2CCC[C@H](C2)NC(=O)C1 [Example 41] | < 100 | < 5 | < 5 | < 100 | < 100 |  |  |  |  |  | 
11 | C[C@@H]1CC(=O)N[C@@H]2CC[C@H](C2)c2nc(-c3ccc(C(=O)Nc4cc(C#N)ccn4)cc3)c3c(N)ncc(n23)/C=C/CCN1 [Example 218] |  | < 5 | < 5 |  |  | < 100 | < 100 | 500 to 10000 |  |  | 
12 | C[C@@H]1CCn2nc(-c3ccc(C(=O)Nc4cc(C(F)(F)F)ccn4)cc3)c3c(N)ncc(c32)/C=C/CCOCCC(=O)N1 [Example 69] | 100 to 1000 | < 5 | < 5 | < 100 | 100 to 500 |  |  |  |  |  | 
13 | Nc1ncc2c3c1c(-c1ccc(C(=O)Nc4cc(C(F)(F)F)ccn4)cc1)nn3[C@@H]1CCC[C@H](C1)NC(=O)CNC/C=C\C2 [Example 105] | 1000 to 10000 | 5 to 50 | 5 to 50 | 100 to 1000 | 500 to 10000 |  |  |  |  |  | 
14 | CN1C/C=C/c2cnc(N)c3c(-c4ccc(C(=O)Nc5cc(C(F)(F)F)ccn5)cc4)nn(c23)[C@@H]2CCC[C@H](C2)C(=O)NCC1 [Example 3] | 100 to 1000 | < 5 | < 5 | < 100 | 500 to 10000 |  |  |  |  |  | 
15 | CN1C/C=C/c2cnc(N)c3c(-c4ccc(C(=O)Nc5cc(C(F)(F)F)ccn5)cc4)nc(n23)[C@@H]2CCCN(C2)C(=O)CCCC1 [Example 129] |  | < 5 | < 5 |  |  |  |  |  | 100 to 1000 | < 100 | 500 to 10000
16 | COc1ccc(F)cc1C(=O)NCc1ccc(-c2nc3n4c(cnc(N)c24)/C=C/CCN[C@H](C)CC(=O)N[C@@H]2CCC[C@@H]3C2)cc1 [Example 212] | < 100 | < 5 | < 5 | < 100 | 500 to 10000 |  |  |  |  |  | 
17 | C[C@@H]1CCn2nc(-c3ccc(C(=O)Nc4cc(C(F)(F)F)ccn4)cc3)c3c(N)ncc(c32)/C=C/CCO[C@@H](C)CC(=O)N1 [Example 158] | 100 to 1000 | < 5 | < 5 | < 100 | 500 to 10000 |  |  |  |  |  | 
18 | Nc1ncc2c3c1c(-c1ccc(C(=O)Nc4cc(C(F)(F)F)ccn4)cc1)nn3[C@@H]1CCC[C@H](C1)NC(=O)CCC[C@H](O)/C=C/2 [Example 13] | 100 to 1000 | < 5 | < 5 | < 100 | 500 to 10000 |  |  |  |  |  | 
19 | Nc1ncc2c3c1c(-c1ccc(C(=O)Nc4cc(C(F)(F)F)ccn4)cc1)nn3[C@@H]1CCC[C@H](C1)C(=O)NCC/C=C\C2 [Example 86] | 100 to 1000 | 50 to 500 | 5 to 50 | 100 to 1000 | 500 to 10000 |  |  |  |  |  | 
20 | C[C@@H]1CC(=O)N[C@@H]2CCC[C@H](C2)n2nc(-c3ccc(C(=O)Nc4cc(F)ccn4)cc3)c3c(N)ncc(c32)/C=C/CCN1 [Example 191] | < 100 | < 5 | < 5 | < 100 | < 100 |  |  |  |  |  | 
21 | CN1CC/C=C/c2cnc(N)c3c(-c4ccc(C(=O)Nc5cc(C(F)(F)F)ccn5)cc4)nn(c23)[C@@H]2CCC[C@H](C2)C(=O)NCC1 [Example 5] | < 100 | < 5 | < 5 | < 100 | 100 to 500 |  |  |  |  |  | 
22 | Nc1ncc2c3c1c(-c1ccc(C(=O)Nc4cc(C(F)(F)F)ccn4)cc1)nn3[C@@H]1CCC[C@H](C1)NC(=O)CCCC(F)(F)/C=C/2 [Example 138] | < 100 | 5 to 50 | 5 to 50 | < 100 | 500 to 10000 |  |  |  |  |  | 
23 | [2H]C1([2H])/C=C/c2cnc(N)c3c(-c4ccc(C(=O)Nc5cc(C(F)(F)F)ccn5)cc4)nn(c23)[C@@H]2CCC[C@H](C2)NC(=O)CCCC1 [Example 137] | < 100 | < 5 | < 5 | < 100 | < 100 |  |  |  |  |  | 

From patent US20250074911A1, “MACROCYCLIC BTK INHIBITORS” (Crossfire Oncology Holding B.V., priority 2021, published 2025)
